Source: patent US20220267260A1, “COMPOUNDS CONTAINING A SULFONIC GROUP AS KAT INHIBITORS” (Epizyme, Inc., priority 2016, published 2022)

How the values were obtained:
KAT5 = target: T1, KAT5 (Homo sapiens, UniProt Q92993); assay: KAT5 enzyme inhibition assay (SAMDI mass spectrometry); format: biochemical; conditions: His-TEV-FL KAT5-Flag enzyme construct
T1 construct: His-TEV tag (N, cleaved yes); made in house

KAT6A = target: T2, KAT6A (Homo sapiens, UniProt Q92794); assay: KAT6A enzyme inhibition assay (SAMDI mass spectrometry); format: biochemical; conditions: His-TEV-KAT6A 501-784 enzyme construct
T2 construct: His-TEV tag (N, cleaved yes); made in house
T2 sequence (Q92794 with tags, fused parts or gaps): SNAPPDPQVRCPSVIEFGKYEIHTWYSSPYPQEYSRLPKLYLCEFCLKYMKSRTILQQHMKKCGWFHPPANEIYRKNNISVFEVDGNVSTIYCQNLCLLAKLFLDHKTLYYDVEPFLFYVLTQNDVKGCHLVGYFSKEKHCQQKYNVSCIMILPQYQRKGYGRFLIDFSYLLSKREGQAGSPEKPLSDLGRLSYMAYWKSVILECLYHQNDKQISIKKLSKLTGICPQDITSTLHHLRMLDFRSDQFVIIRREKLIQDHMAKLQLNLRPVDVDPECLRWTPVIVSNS

T1 sequence (Q92993 with tags, fused parts or gaps): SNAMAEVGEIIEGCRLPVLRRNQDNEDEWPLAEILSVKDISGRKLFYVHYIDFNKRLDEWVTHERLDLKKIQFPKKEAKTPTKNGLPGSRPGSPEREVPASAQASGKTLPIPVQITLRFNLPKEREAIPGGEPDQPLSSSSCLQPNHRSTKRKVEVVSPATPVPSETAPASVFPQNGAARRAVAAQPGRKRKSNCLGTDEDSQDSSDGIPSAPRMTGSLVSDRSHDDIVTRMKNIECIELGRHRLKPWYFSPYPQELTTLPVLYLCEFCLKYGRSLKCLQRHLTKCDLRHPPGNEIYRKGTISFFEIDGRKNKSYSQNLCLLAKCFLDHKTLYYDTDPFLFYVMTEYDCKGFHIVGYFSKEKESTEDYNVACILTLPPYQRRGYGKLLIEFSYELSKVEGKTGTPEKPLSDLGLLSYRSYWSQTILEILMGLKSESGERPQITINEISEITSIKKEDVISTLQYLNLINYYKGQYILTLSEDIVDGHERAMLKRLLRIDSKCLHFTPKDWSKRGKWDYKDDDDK

Row | IC50 (KAT5) | IC50 (KAT6A) | Compound
1 | > 100 µM | > 100 µM | CNC(=O)Cn1nc(C)c(F)c1C(=O)NNS(=O)(=O)C1CCCCC1 [Compound I-503]
2 | 50 to 100 µM | 50 to 100 µM | Cc1cc(-c2ccccc2)cc(C(=O)NNS(=O)(=O)C2CC2)c1F [Compound I-4]
3 | > 100 µM | 50 to 100 µM | O=C(NNS(=O)(=O)c1ccccc1)c1ncccc1F [Compound I-252]
4 | > 100 µM | > 100 µM | O=C(NNS(=O)(=O)C1CCCCC1)c1ccccc1F [Compound I-116]
5 | > 100 µM | > 100 µM | CCNC(=O)c1cc(Cl)c(F)c(C(=O)NNS(=O)(=O)C2CCCCC2)c1 [Compound I-472]
6 | ≤ 10 µM | ≤ 10 µM | O=C(NNS(=O)(=O)c1ccccc1)c1cc(-c2ccccc2)cc(F)c1F [Compound I-250]
7 | > 100 µM | > 100 µM | Cc1cccc(-c2cc(Cl)c(F)c(C(=O)NNS(=O)(=O)CC3CCCNC3)c2)c1 (stereo not shown) [Compound I-514]
8 | ≤ 10 µM | ≤ 10 µM | Cc1cc(-c2ccccc2)cc(C(=O)NNS(=O)(=O)CC2CCCN(C(=O)CCN(C)C(=O)OC(C)(C)C)C2)c1F (stereo not shown) [Compound I-379]
9 | ≤ 10 µM | ≤ 10 µM | Cc1cc(-c2cccc(F)c2)cc(C(=O)NNS(=O)(=O)CC2CCN(C(=O)OC(C)(C)C)CC2)c1F [Compound I-359]
10 | ≤ 10 µM | > 100 µM | Nc1ccc(-c2cc(Cl)c(F)c(C(=O)NNS(=O)(=O)C3CCCCC3)c2)cc1 [Compound I-463]
11 | > 100 µM | > 100 µM | Cc1cc(-c2ccccc2)cc(C(=O)Nc2nnc3n2CCCC3)c1F [Compound I-150]
12 | > 100 µM | > 100 µM | O=S(=O)(NNc1nc2ccccc2[nH]1)c1ccccc1 [Compound I-12]
13 | > 100 µM | > 100 µM | Cc1c(C(=O)NNS(=O)(=O)C2CCCCC2)cccc1-c1ccccc1 [Compound I-363]
14 | > 100 µM | > 100 µM | Cn1nc(NNS(=O)(=O)c2ccccc2)c2cc(-c3ccccc3)ccc21 [Compound I-47]
15 | 10 to 50 µM | 10 to 50 µM | Cc1cc(-c2cc(F)cc(F)c2)cc(C(=O)NNS(=O)(=O)CC2CCCCC2)c1F [Compound I-355]
16 | ≤ 10 µM | ≤ 10 µM | Cc1cc(-c2ccccc2)cc(C(=O)NNS(=O)(=O)Cc2cccc(Cl)c2)c1F [Compound I-5]
17 | 50 to 100 µM | 10 to 50 µM | CCC(=O)N1CCC(S(=O)(=O)NNC(=O)c2cc(-c3ccccc3)cc(C)c2F)C1 (stereo not shown) [Compound I-104]
18 | > 100 µM | > 100 µM | O=C(NNS(=O)(=O)C1CCCCC1)c1c(Cl)ccc(-c2ccccc2)c1Cl [Compound I-275]
19 | ≤ 10 µM | > 100 µM | Cc1cccc(-c2cc(Cl)c(F)c(C(=O)NNS(=O)(=O)CC3CCCN(C(=O)OC(C)(C)C)C3)c2)c1 (stereo not shown) [Compound I-513]
20 | 10 to 50 µM | ≤ 10 µM | Cc1cc(-c2cccnc2)cc(C(=O)NNS(=O)(=O)c2ccccc2)c1F [Compound I-195]
21 | ≤ 10 µM | ≤ 10 µM | Cc1cc(-c2ccccc2)cc(C(=O)NNS(=O)(=O)c2cccc(CO)c2)c1F [Compound I-261]
22 | > 100 µM | > 100 µM | O=C(NNS(=O)(=O)C1CCCCC1)c1c(F)ccc(-c2ccccc2)c1Cl [Compound I-312]

Row | IC50 (KAT5) | IC50 (KAT6A) | Compound
23 | 50 to 100 µM | 50 to 100 µM | Cc1cc(-c2cccc(Cl)c2)cc(C(=O)NNS(=O)(=O)CC2CCCCC2)c1F [Compound I-342]
24 | 10 to 50 µM | 10 to 50 µM | Cc1cc(-c2ccccc2)cc(C(=O)NNS(=O)(=O)C2CCN(Cc3ccccc3)C2)c1F (stereo not shown) [Compound I-33]
25 | > 100 µM | > 100 µM | CCNC(=O)N1CCC(CS(=O)(=O)NNC(=O)c2cc(-c3cccc(C)c3)cc(Cl)c2F)C1 (stereo not shown) [Compound I-518]
26 | 10 to 50 µM | 10 to 50 µM | Cc1c(-c2ccccc2)ccc(F)c1C(=O)NNS(=O)(=O)c1ccc2ccccc2c1 [Compound I-240]
27 | > 100 µM | ≤ 10 µM | COc1cccc(-c2cc(C)c(F)c(C(=O)NNS(=O)(=O)c3ccccc3)c2)c1 [Compound I-350]
28 | ≤ 10 µM | ≤ 10 µM | Cc1cc(-c2cccc(F)c2)cc(C(=O)NNS(=O)(=O)CC2CCCN(C(=O)CCN(C)C(=O)OC(C)(C)C)C2)c1F (stereo not shown) [Compound I-331]
29 | 50 to 100 µM | ≤ 10 µM | COc1ccc(Cn2cnc(-c3ccc(F)c(C(=O)NNS(=O)(=O)c4ccccc4)c3F)c2)cc1 [Compound I-222]
30 | 10 to 50 µM | ≤ 10 µM | Cc1cc(-c2ccccc2)cc(C(=O)NNS(=O)(=O)C2CCN(C(=O)OC(C)(C)C)C2)c1F (stereo not shown) [Compound I-118, tert-Butyl 3-((2-(4-fluoro-5-methyl-[1,1′-biphenyl]-3-carbonyl)hydrazinyl)sulfonyl)pyrrolidine-1-carboxylate]
31 | 10 to 50 µM | ≤ 10 µM | O=C(NNS(=O)(=O)c1cccc(Cl)c1)c1c(F)ccc(-c2ccccc2)c1F [Compound I-161]
32 | 10 to 50 µM | 10 to 50 µM | Cc1cc(-c2ccccc2)cc(C(=O)NNS(=O)(=O)C2CCN(Cc3cccc(Cl)c3)C2)c1F (stereo not shown) [Compound I-30]
33 | ≤ 10 µM | 10 to 50 µM | Cc1cc(-c2ccccc2)cc(C(=O)NNS(=O)(=O)C(C)C2CCCN(C(=O)OC(C)(C)C)C2)c1F (stereo not shown) [Compound I-313]
34 | > 100 µM | > 100 µM | Cc1ccccc1C(=O)NNS(=O)(=O)c1ccccc1 [Compound I-148]
35 | ≤ 10 µM | 10 to 50 µM | COc1cc(Cl)c(F)c(C(=O)NNS(=O)(=O)CC2CCCCC2)c1 [Compound I-394]
36 | ≤ 10 µM | ≤ 10 µM | COCC(=O)N1CCCC(CS(=O)(=O)NNC(=O)c2cc(-c3ccccc3)cc(C)c2F)C1 (stereo not shown) [Compound I-346]
37 | 50 to 100 µM | 10 to 50 µM | Cc1cc(-c2ccccc2)cc(C(=O)NCCS(=O)(=O)Nc2ccccc2)c1F [Compound I-75]
38 | ≤ 10 µM | > 100 µM | Cc1cccc(-c2cc(Cl)c(F)c(C(=O)NNS(=O)(=O)CC3CCCN(C(=O)C4CCC4)C3)c2)c1 (stereo not shown) [Compound I-512]
39 | 10 to 50 µM | 10 to 50 µM | Cc1c(-c2ccccc2)ccc(F)c1C(=O)NNS(=O)(=O)CC(Cc1ccccc1)C(C)C (stereo not shown) [Compound I-268]
40 | ≤ 10 µM | > 100 µM | Cc1cccc(-c2cc(Cl)c(F)c(C(=O)NNS(=O)(=O)CC3CCN(C(=O)OC(C)(C)C)C3)c2)c1 (stereo not shown) [Compound I-516]
41 | > 100 µM | > 100 µM | Cc1c(C(=O)NNS(=O)(=O)c2cccc(Cl)c2)cnn1-c1ccccc1 [Compound I-316]
42 | > 100 µM | 10 to 50 µM | O=C(NNS(=O)(=O)c1ccccc1)c1ccccc1F [Compound I-165]
43 | 10 to 50 µM | ≤ 10 µM | O=C(NNS(=O)(=O)c1ccccc1)c1cccc(Cl)c1F [Compound I-160]
44 | 10 to 50 µM | 10 to 50 µM | Cc1cc(-c2ccccc2)cc(C(=O)NNS(=O)(=O)CC2CCN(CCO)CC2)c1F [Compound I-343]

Row | IC50 (KAT5) | IC50 (KAT6A) | Compound
45 | 10 to 50 µM | > 100 µM | CCc1cc(Cl)c(F)c(C(=O)NNS(=O)(=O)CC2CCOCC2)c1 [Compound I-423]
46 | 10 to 50 µM | 10 to 50 µM | CNCCC(=O)N1CCCC(CS(=O)(=O)NNC(=O)c2cc(-c3cccc(F)c3)cc(C)c2F)C1 (stereo not shown) [Compound I-328]
47 | ≤ 10 µM | ≤ 10 µM | CCN(C)C(=O)N1CCC(CS(=O)(=O)NNC(=O)c2cc(-c3cccc(C)c3)cc(Cl)c2F)C1 (stereo not shown) [Compound I-519]
48 | > 100 µM | > 100 µM | Cc1cc(-c2ccccc2)cc(C(=O)NNS(=O)(=O)C2CCNCC2)c1F [Compound I-89]
49 | ≤ 10 µM | ≤ 10 µM | Cc1cc(-c2cccc(F)c2)cc(C(=O)NNS(=O)(=O)CC2CCCN(C(=O)OC(C)(C)C)C2)c1F (stereo not shown) [Compound I-285]
50 | > 100 µM | > 100 µM | Cc1nn(CC(=O)NCCO)c(C(=O)NNS(=O)(=O)C2CCCCC2)c1F [Compound I-504]
51 | ≤ 10 µM | > 100 µM | CC(=O)N1CCCC(CS(=O)(=O)NNC(=O)c2cc(-c3cccc(C)c3)cc(Cl)c2F)C1 (stereo not shown) [Compound I-515]
52 | ≤ 10 µM | ≤ 10 µM | Cc1cccc(-c2ncc(C(=O)Nc3ccccc3)[nH]2)c1F [Compound I-450]
53 | 10 to 50 µM | 10 to 50 µM | Cc1cc(-c2ccccc2)cc(C(=O)NNS(=O)(=O)C2CCC2)c1F [Compound I-7]
54 | ≤ 10 µM | 10 to 50 µM | Cc1cc(-c2ccccc2)cc(C(=O)NNS(=O)(=O)C2CCN(C(=O)C(C)C)CC2)c1F [Compound I-108]
55 | 10 to 50 µM | 10 to 50 µM | COCCN1CCCC(C(C)S(=O)(=O)NNC(=O)c2cc(-c3ccccc3)cc(C)c2F)C1 (stereo not shown) [Compound I-334]
56 | > 100 µM | > 100 µM | O=S(=O)(NNc1n[nH]c2ccc(-c3ccccc3)cc12)c1ccccc1 [Compound I-46]
57 | ≤ 10 µM | ≤ 10 µM | Cc1cc(-c2ccccc2)cc(C(=O)NNS(=O)(=O)c2cccc(O)c2)c1F [Compound I-235]
58 | > 100 µM | > 100 µM | COCc1cc(Cl)c(F)c(C(=O)NNS(=O)(=O)C2CCOCC2)c1 [Compound I-453]
59 | > 100 µM | > 100 µM | COc1ccccc1C(=O)NNS(=O)(=O)c1ccccc1 [Compound I-145]
60 | 10 to 50 µM | 10 to 50 µM | Cc1cc(-c2ccccc2)cc(C(=O)NNS(=O)(=O)CC2CCN(C)CC2)c1F [Compound I-349]
61 | 10 to 50 µM | 10 to 50 µM | Cc1cc(-c2cccc(C(=O)N(C)C)c2)cc(C(=O)NNS(=O)(=O)CC2CCCCC2)c1F [Compound I-374]
62 | > 100 µM | > 100 µM | O=C(NNS(=O)(=O)c1ccccc1)c1c(F)cccc1-c1ccccc1 [Compound I-354]
63 | > 100 µM | > 100 µM | O=C(NC1CCC1)c1cc(Cl)c(F)c(C(=O)NNS(=O)(=O)C2CCCCC2)c1 [Compound I-473]
64 | ≤ 10 µM | ≤ 10 µM | Cc1cc(-c2cccc(C(=O)O)c2)cc(C(=O)NNS(=O)(=O)C2CCCCC2)c1F [Compound I-444]
65 | ≤ 10 µM | ≤ 10 µM | O=C(NNS(=O)(=O)CC1CCCCC1)c1cc(CO)cc(Cl)c1F [Compound I-457]
